Results taken from patent publication US20120225909A1, “INDAZOLE ANALOG” (priority 2009, published 2012).

Assays:
[1] = biological target: T1, human α1A-adrenergic receptor (Homo sapiens, UniProt P35348); test: Test Case 4-B: human α1A-adrenergic receptor agonist activity (Cerep cellular functional GPCR, alpha 1A); type: cell-based; parameters: expressed in transfected cells; conditions: concentration 10 μM; for α1 receptor % of Control Agonist Response, Control; Epinephrine: epinephrine = 100%; for α1 receptor % of Control Agonist Response, Control; Norepinephrine: norepinephrine = 100%
T1 sequence (P35348 1-466): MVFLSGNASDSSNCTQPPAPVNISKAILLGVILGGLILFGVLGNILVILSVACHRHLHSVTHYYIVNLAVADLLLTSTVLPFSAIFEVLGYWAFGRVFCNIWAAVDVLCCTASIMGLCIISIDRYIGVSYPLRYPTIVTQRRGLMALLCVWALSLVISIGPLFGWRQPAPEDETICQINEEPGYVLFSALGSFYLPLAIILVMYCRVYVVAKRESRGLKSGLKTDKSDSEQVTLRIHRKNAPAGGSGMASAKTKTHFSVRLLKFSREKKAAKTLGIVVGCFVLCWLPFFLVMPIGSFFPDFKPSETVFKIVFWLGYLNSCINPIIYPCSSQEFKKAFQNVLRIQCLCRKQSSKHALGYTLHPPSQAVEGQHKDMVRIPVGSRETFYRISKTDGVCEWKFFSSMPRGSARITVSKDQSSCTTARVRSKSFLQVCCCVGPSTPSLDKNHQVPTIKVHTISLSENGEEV
Text: Measurement of Human α1A-Adrenergic Receptor Agonist Activity
The human α1A-adrenergic receptor agonist activity] can be measured by […] Functional GPCR·Gs, alpha 1A (Ref. 722-36a) listed on p. 52 of the Cerep 2008 CATALOG IN VITRO PHARMACOLOGY & ADME-TOX.

[2] = biological target: T2, human β1-adrenergic receptor (Homo sapiens, UniProt P08588); test: Test Case 2-C: human β1-adrenergic receptor agonist activity (Cerep cellular functional GPCR, beta 1); type: cell-based; conditions: concentration 10 μM, isoproterenol = 100%
T2 construct: expressed in transfected cells; host or cells: CHO (Chinese hamster ovary) cells, pcDNA3
Text: (§1) Measurement of Human β1-Adrenergic Receptor Agonist Activity

[3] = biological target: T3, human β2-adrenergic receptor (Homo sapiens, UniProt P07550); test: Test Case 3-C: human β2-adrenergic receptor agonist activity (Cerep cellular functional GPCR, beta 2); type: cell-based; conditions: concentration 10 μM, isoproterenol = 100%
T3 construct: expressed in transfected cells; host or cells: CHO (Chinese hamster ovary) cells, pcDNA3
Text: (§2) Measurement of Human β2-Adrenergic Receptor Agonist Activity

Male C57BL/6 Cr mice = test: Test Case 10: mouse piloerection test; type: in vivo; conditions: 10 mg/kg i.v.
Protocol: Male C57BL/6 Cr mice (Japan SLC) are used. The dissolved compound is administered rapidly via a caudal vein. The animal is placed on the observation stand 5, 15, 30, and 60 minutes after administration, and the state of piloerection is observed. The state of piloerection is evaluated by the following 7-level scoring system according to the examples by the method of Irwin (Psychopharmacologia 1968, 13; 222-257).
Scoring system: “Score 0”: No piloerection at all; “Score 1”: Slight piloerection (piloerection on part of the body such as the back or neck); “Score 2”: Moderate piloerection (piloerection over the entire body); “Score 3”: Marked piloerection (piloerection over the entire body, conspicuous to the extent that the skin can be seen).
“Score 0.5” is between “Score 0” and “Score 1” “Score 1.5” is between […]. “Score 2.5” is between “Score 2” and “Score 3.”

[4] = biological target: T3, human β2-adrenergic receptor; test: Test Case 3-B: human β2-adrenergic receptor agonist activity; type: cell-based; conditions: read-out: β2 receptor I.A.
Protocol: as §2
The human β2-adrenergic receptor agonist activity is measured by the same method as in Test Case 1-B using CHO (Chinese hamster ovary) cells transfected by a human β2 gene inserted in pcDNA3 (Invitrogen).

[5] = biological target: T2, human β1-adrenergic receptor; test: Test Case 2-B: human β1-adrenergic receptor agonist activity; type: cell-based; conditions: read-out: β1 receptor I.A.
Protocol: as §1
The human β1-adrenergic receptor agonist activity is measured by the same method as in Test Case 1-B using CHO (Chinese hamster ovary) cells transfected by a human β1 gene inserted in pcDNA3 (Invitrogen).

[6] = biological target: T4, human β3-adrenergic receptor (Homo sapiens, UniProt P13945); test: Test Case 1-B: human β3-adrenergic receptor agonist activity (cAMP-Screen, 96-well); type: cell-based
T4 construct: A full-length human β3 gene is obtained from a human genomic library (made by Clontech) using this as the probe; expressed in transfected cells; host or cells: CHO (Chinese hamster ovary) cells, pcDNA3
Procedure, shortened: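 CHO cells stably transfected with full-length human β3 gene, serum-starved 15 min, then exposed to serially diluted compound in Ham's F-12 with 100 mmol/L HEPES and 1 mmol/L IBMX (diluent concentrations) for 30 min. Cells lysed 30 min at 37 °C; cAMP quantified by cAMP-Screen immunoassay.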

[7] = biological target: T1, human α1A-adrenergic receptor; test: Test Case 4-A: human α1A-adrenergic receptor agonist activity (HEK293, Ca flux, Fura-2); type: cell-based; parameters: expressed in transfected cells; host or cells: HEK293 cells, pcDNA3.1; conditions: HEK293; read-out: α1A receptor I.A.
Procedure, shortened: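 Fura-2AM-loaded HEK293 cells transfected with human α1A were preincubated for 180 s. Compound (sample plate 10^−5 to 10^−12 M) was added after ~30 s of 340/380 nm excitation ratio reading (500 nm emission, 2-s intervals), followed by 270 s more reading. Ca flux is the peak height: maximum ratio after addition minus the pre-addition ratio.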

T3 sequence (P07550 whole entry): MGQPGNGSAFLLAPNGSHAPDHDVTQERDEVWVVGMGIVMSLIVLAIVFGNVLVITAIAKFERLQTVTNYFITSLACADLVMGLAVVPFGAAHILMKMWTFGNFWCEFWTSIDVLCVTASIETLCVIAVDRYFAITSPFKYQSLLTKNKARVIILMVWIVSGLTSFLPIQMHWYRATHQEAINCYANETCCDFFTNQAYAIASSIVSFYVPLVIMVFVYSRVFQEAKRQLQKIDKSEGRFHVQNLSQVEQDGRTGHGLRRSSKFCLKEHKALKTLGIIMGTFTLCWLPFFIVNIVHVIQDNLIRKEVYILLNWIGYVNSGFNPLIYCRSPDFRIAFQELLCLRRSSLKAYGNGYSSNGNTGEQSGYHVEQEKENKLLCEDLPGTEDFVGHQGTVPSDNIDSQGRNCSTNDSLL
T2 sequence (P08588 whole entry): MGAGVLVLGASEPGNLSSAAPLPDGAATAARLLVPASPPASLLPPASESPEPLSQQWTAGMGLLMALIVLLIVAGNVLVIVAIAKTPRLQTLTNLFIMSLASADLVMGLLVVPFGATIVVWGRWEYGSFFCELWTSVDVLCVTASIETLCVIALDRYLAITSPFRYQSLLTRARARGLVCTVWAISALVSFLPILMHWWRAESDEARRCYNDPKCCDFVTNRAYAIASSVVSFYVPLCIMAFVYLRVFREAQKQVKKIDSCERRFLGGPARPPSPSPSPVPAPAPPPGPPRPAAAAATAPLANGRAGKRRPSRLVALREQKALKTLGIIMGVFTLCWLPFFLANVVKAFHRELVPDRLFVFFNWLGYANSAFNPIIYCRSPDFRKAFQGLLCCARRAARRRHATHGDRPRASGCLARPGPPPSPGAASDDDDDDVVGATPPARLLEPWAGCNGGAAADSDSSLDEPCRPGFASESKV
T4 sequence (P13945 whole entry): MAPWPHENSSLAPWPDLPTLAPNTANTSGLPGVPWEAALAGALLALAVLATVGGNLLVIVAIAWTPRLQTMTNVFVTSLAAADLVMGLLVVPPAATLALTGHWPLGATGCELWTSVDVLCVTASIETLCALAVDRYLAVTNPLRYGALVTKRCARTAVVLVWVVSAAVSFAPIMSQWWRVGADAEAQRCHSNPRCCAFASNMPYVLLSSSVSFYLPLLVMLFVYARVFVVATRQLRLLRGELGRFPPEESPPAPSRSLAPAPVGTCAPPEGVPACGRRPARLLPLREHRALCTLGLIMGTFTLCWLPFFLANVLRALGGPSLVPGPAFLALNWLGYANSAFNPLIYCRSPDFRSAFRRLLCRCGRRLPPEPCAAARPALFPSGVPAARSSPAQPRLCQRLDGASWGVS

Row | α1 receptor % of Control Agonist Response, Control; Epinephrine [1] | α1 receptor % of Control Agonist Response, Control; Norepinephrine [1] | β1 receptor % of Control Agonist Response [2] | β2 receptor % of Control Agonist Response [3] | SMILES | further results
1 | 8.1% | 7.0% | 7.0% | 3.2% | O=S(=O)(Nc1cccc([C@@H](O)CNCCOc2ccc3c(Cl)n[nH]c3c2)c1)c1ccsc1 [ex157, (R)-N-(3-(2-(2-(3-chloroindazol-6-yloxy)ethylamino)-1-hydroxyethyl)phenyl)thiophene-3-sulfonamide] | 
2 | 0.1% | 0.1% | 23% | 0.5% | Nc1cccc(S(=O)(=O)Nc2cccc([C@@H](O)CNCCOc3ccc4c(C5CC5)n[nH]c4c3)c2)c1F [ex215, (R)-3-amino-N-(3-(2-(2-(3-cyclopropyl-indazol-6-yloxy)ethyl-amino)-1-hydroxy-ethyl)phenyl)-2-fluorobenzene-sulfonamide] | 
3 | −0.2% | −0.2% | 15% | 0.8% | CCc1n[nH]c2cc(OCCNC[C@H](O)c3cccc(NS(=O)(=O)c4cc(N)ccc4F)c3)ccc12 [ex148, (R)-5-amino-N-(3-(2-(2-(3-ethylindazol-6-yloxy)-ethylamino)-1-hydroxyethyl)phenyl)-2-fluorobenzene-sulfonamide] | 
4 | 17% | 15% | 8.0% | 8.8% | O=S(=O)(Nc1cc([C@@H](O)CNCCOc2ccc3c(C(F)(F)F)n[nH]c3c2)ccc1Cl)C1CC1 [ex199, (R)-N-(2-chloro-5-(1-hydroxy-2-(2-(3-(tri-fluoromethyl)-indazol-6-yloxy)ethylamino)-ethyl)phenyl)-cyclo-propanesulfonamide] | 
5 | 6.4% | 6% | 13% | 0.3% | Nc1ccc(F)c(S(=O)(=O)Nc2cccc([C@@H](O)CNCCOc3ccc4c(C(F)(F)F)n[nH]c4c3)c2)c1 [ex185, (R)-5-amimo-2-fluoro-N-(3-(1-hydroxy-2-(2-(3-(trifluoro-methyl)-indazol-6-yloxy)ethylamino)ethyl)phenyl)ben-zenesulfonamide] | 
6 | 26% | 22% | 6.4% | 0.3% | O=S(=O)(Nc1cccc([C@@H](O)CNCCOc2ccc3c(Cl)n[nH]c3c2)c1)c1cn[nH]c1 [ex167, (R)-N-(3-(2-(2-(3-chloroindazol-6-yloxy)ethylamino)-1-hydroxyethyl)phenyl)pyrazole-4-sulfonamide] | 
7 | 0.7% | 0.6% | 9.4% | −0.2% | Nc1ccc(F)c(S(=O)(=O)Nc2cccc([C@@H](O)CNCCOc3ccc4c(Cl)n[nH]c4c3)c2)c1 [ex242, (R)-5-amino-N-(3-(2-(2-(3-chloroindazole-6-yloxy)ethylamino)-1-hydroxyethyl)phenyl)-2-fluorobenzenesulfonamide] | 

More lines, now with the values behind:

Row | SMILES | α1 receptor % of Control Agonist Response, Control; Epinephrine [1] | α1 receptor % of Control Agonist Response, Control; Norepinephrine [1] | β1 receptor % of Control Agonist Response [2] | β2 receptor % of Control Agonist Response [3] | further results
8 | Cc1n[nH]c2cc(OCCNC[C@H](O)c3cccc(NS(=O)(=O)c4ccc(F)c(N)c4)c3)ccc12 [ex58, (R)-3-amino-4-fluoro-N-(3-(1-hydroxy-2-(2-(3-methylindazol-6-yloxy)ethylamino)ethyl)phenyl) benzenesulfonamide] | 0.6% | 0.5% | 18% | 1.8% | 
9 | Nc1ccc(F)c(S(=O)(=O)Nc2cccc([C@@H](O)CNCCOc3ccc4c(OC(F)F)n[nH]c4c3)c2)c1 [ex106] | −0.2% | −0.2% | 11% | 2.1% | 
10 | COc1n[nH]c2cc(OCCNC[C@H](O)c3cccc(NS(=O)(=O)c4cn[nH]c4)c3)ccc12 [ex23, (R)-N-( ? -(1-hydroxy-2-(2-(3-methoxyindazol-6-yloxy)ethylamino)ethyl)phenyl)pyrazole-4-sulfonamide] | 32% | 27% | 2.1% | 0.5% | 
11 | CCc1n[nH]c2cc(OCCNC[C@H](O)c3cccc(NS(=O)(=O)c4ccccc4F)c3)ccc12 [ex128, (R)-N-(3-(2-(2-(3-ethylindazol-6-yloxy)ethylamino)-1-hydroxyethyl)phenyl)-2-fluorobenzene-sulfonamide] | 16% | 14% | 10% | 0.3% | 
12 | Cc1n[nH]c2cc(OCCNC[C@H](O)c3cccc(NS(=O)(=O)c4cc(F)c(F)cc4F)c3)ccc12 [ex85, (R)-2,4,5-trifluoro-N-(3-(1-hydroxy-2-(2-(3-methylindazol-6-yloxy)ethylamino)ethyl)phenyl) benzenesulfonamide] | 0.1% | 0.1% | 30% | 1.0% | 
13 | CCc1n[nH]c2cc(OCCNC[C@H](O)c3cccc(NS(=O)(=O)C4CC4)c3)ccc12 [ex124, (R)-N-(3-(2-(2-(3-ethylindazol-6-yloxy)ethylamino)-1-hydroxyethyl)phenyl)-cyclopropanesul-fonamide] |  |  |  |  | number of experimental animals matching Score 0 (no piloerection) (Male C57BL/6 Cr mice; n=4, observation time 5 min): 2; number of experimental animals matching Score 0.5 (Male C57BL/6 Cr mice; n=4, observation time 5 min): 1; number of experimental animals matching Score 1 (slight piloerection) (Male C57BL/6 Cr mice; n=4, observation time 5 min): 1; number of experimental animals matching Score 0.5 (Male C57BL/6 Cr mice; n=4, observation time 15 min): 3; number of experimental animals matching Score 1 (slight piloerection) (Male C57BL/6 Cr mice; n=4, observation time 15 min): 1; number of experimental animals matching Score 0 (no piloerection) (Male C57BL/6 Cr mice; n=4, observation time 30 min): 2; number of experimental animals matching Score 0.5 (Male C57BL/6 Cr mice; n=4, observation time 30 min): 2; number of experimental animals matching Score 0 (no piloerection) (Male C57BL/6 Cr mice; n=4, observation time 60 min): 2; number of experimental animals matching Score 0.5 (Male C57BL/6 Cr mice; n=4, observation time 60 min): 2; Emax [4]: -1%; Emax [5]: -6%; Emax ([6]; 0.5 h, read-out: β3 receptor I.A.): 52%; EC50 ([6]; Test Case 1-B, CHO cells, cAMP): 13 nM; Emax [7]: 0%
